The values that follow come from US7541336B2 (priority 2002, dated 2009).

As usually defined, the IC50 is the midpoint of a concentration-inhibition curve.

For data set [1], the system named is nauplii of Artemia salina. Put plainly: Anti-arthropod activity, 96 well plate. The format is in vivo. The following applies: at 20 μg/ml, observed after 2 days under microscope. As to the method:
(§1) Methanol solution of FKI-1033 substance was added into 96 well plate (Corning Inc., the U.S.), removed off methanol in vacuo, added 250 μl of test medium (lecithin 0.01%, sodium hydrogen carbonate 7.5 mM, potassium chloride 7.5 mM, calcium chloride dihydrate 7.5 mM and magnesium sulfate heptahydrate 7.5 mM) and shaken for 15 min. 50 μl of buffer containing several nauplii of Artemia salina, which were hatched off in the buffer, was added thereto, and about ten nematodes, Caenorhabditis elegans, which were bred on agar medium for growth of nematode, were added thereto.

Data set [2] relates to Caenorhabditis elegans. Nature of the data set: Anti-nematode activity, 96 well plate. The data set is classed as in vivo. The following applies: at 20 μg/ml, observed after 2 days under microscope. As to the method:
as §1

Data set [3] deals with T1, ryanodine receptor of Periplaneta americana origin (Periplaneta americana, UniProt A0ABQ8T696).
T1 sequence (A0ABQ8T696 1-1387): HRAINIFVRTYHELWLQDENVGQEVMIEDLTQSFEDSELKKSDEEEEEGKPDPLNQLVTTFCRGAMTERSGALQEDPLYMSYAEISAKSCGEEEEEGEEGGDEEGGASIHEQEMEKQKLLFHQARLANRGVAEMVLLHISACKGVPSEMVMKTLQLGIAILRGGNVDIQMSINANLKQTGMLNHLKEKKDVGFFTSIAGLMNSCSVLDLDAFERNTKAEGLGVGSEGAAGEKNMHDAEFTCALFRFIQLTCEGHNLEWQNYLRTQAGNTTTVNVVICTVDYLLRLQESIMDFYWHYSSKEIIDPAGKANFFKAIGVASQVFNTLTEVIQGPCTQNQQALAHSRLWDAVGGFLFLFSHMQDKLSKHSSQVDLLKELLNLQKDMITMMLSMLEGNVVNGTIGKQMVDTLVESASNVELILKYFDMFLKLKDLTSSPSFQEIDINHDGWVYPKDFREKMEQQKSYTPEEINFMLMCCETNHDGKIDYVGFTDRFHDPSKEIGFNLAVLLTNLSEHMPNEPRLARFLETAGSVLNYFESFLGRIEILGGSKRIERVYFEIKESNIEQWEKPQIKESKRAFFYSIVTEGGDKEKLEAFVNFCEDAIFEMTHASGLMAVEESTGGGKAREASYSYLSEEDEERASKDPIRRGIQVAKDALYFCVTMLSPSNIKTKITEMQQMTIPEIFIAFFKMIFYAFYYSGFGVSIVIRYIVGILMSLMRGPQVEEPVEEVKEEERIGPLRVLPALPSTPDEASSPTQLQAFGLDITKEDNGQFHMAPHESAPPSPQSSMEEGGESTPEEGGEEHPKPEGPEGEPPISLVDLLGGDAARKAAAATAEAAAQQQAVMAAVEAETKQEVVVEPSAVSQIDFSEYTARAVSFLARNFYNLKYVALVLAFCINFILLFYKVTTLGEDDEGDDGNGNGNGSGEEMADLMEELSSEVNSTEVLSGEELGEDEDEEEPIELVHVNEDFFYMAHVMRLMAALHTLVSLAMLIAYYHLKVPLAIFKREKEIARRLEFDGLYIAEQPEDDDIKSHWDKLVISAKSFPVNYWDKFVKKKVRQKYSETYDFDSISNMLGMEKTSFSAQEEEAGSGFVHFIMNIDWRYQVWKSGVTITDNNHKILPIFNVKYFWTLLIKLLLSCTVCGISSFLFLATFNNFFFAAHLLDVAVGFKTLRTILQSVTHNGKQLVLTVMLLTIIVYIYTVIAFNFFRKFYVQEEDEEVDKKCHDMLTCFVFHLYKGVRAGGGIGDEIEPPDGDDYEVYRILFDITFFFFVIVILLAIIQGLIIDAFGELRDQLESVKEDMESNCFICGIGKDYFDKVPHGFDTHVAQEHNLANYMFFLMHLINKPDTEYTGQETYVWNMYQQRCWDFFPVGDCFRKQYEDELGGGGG
Put plainly: Ryanodine binding inhibition, crude ryanodine receptor of Periplaneta americana.
Protocol: (1) Preparation of the Crude Ryanodine Receptor Fraction of the Insect was Performed as Follows.
The thorax and legs of ten adult insects of Periplaneta americana were frozen with liquid nitrogen and finely cut, and homogenized three times in 15 ml of 50 mM Tris HCl buffer (pH 7.4) containing 4 μg/ml leupeptin and 3 μg/ml pepstatin by using a knife homogenizer at 0° C., 24,000 rpm for 30 sec. The homogenate was filtered using double layered cotton cloth and the filtrate was centrifuged at 4° C., 3,000 rpm for 20 minutes. The obtained supernatant was centrifuged at 4° C., 30,000 rpm for 30 minutes and the precipitate suspended in 1 ml of 20 mM Tris HCl buffer (pH 8.0) containing 0.3 M sucrose, 500 μM calcium chloride and 1.5 M potassium chloride and homogenized with glass potter to obtain crude ryanodine receptor fraction. The crude ryanodine receptor fraction was used by diluting about 7 times with the buffer A (20 mM Tris-HCl buffer (pH 8.0) containing 4 μg/ml aprotinin, 4 μgμml leupeptin, 0.3 M sucrose and 500 μM calcium chloride) immediately before use. […]
70 μl of the buffer A, 10 μl of ethanol solution of 0.1 nM ryanodine and 10 μl of 20 nM [9,21-^3H] […] Radioactivity was measured by measuring fluorescence intensity of the filter with using scintillation counter (Wallac Inc. the U.S., MicroBeta™ TriLux)

The target in data set [4] is ryanodine receptor of mouse origin (Mus musculus, UniProt E9PZQ0). Put plainly: Ryanodine binding inhibition, crude mammalian ryanodine receptor.
ryanodine receptor of mouse origin, sequence (E9PZQ0 whole entry): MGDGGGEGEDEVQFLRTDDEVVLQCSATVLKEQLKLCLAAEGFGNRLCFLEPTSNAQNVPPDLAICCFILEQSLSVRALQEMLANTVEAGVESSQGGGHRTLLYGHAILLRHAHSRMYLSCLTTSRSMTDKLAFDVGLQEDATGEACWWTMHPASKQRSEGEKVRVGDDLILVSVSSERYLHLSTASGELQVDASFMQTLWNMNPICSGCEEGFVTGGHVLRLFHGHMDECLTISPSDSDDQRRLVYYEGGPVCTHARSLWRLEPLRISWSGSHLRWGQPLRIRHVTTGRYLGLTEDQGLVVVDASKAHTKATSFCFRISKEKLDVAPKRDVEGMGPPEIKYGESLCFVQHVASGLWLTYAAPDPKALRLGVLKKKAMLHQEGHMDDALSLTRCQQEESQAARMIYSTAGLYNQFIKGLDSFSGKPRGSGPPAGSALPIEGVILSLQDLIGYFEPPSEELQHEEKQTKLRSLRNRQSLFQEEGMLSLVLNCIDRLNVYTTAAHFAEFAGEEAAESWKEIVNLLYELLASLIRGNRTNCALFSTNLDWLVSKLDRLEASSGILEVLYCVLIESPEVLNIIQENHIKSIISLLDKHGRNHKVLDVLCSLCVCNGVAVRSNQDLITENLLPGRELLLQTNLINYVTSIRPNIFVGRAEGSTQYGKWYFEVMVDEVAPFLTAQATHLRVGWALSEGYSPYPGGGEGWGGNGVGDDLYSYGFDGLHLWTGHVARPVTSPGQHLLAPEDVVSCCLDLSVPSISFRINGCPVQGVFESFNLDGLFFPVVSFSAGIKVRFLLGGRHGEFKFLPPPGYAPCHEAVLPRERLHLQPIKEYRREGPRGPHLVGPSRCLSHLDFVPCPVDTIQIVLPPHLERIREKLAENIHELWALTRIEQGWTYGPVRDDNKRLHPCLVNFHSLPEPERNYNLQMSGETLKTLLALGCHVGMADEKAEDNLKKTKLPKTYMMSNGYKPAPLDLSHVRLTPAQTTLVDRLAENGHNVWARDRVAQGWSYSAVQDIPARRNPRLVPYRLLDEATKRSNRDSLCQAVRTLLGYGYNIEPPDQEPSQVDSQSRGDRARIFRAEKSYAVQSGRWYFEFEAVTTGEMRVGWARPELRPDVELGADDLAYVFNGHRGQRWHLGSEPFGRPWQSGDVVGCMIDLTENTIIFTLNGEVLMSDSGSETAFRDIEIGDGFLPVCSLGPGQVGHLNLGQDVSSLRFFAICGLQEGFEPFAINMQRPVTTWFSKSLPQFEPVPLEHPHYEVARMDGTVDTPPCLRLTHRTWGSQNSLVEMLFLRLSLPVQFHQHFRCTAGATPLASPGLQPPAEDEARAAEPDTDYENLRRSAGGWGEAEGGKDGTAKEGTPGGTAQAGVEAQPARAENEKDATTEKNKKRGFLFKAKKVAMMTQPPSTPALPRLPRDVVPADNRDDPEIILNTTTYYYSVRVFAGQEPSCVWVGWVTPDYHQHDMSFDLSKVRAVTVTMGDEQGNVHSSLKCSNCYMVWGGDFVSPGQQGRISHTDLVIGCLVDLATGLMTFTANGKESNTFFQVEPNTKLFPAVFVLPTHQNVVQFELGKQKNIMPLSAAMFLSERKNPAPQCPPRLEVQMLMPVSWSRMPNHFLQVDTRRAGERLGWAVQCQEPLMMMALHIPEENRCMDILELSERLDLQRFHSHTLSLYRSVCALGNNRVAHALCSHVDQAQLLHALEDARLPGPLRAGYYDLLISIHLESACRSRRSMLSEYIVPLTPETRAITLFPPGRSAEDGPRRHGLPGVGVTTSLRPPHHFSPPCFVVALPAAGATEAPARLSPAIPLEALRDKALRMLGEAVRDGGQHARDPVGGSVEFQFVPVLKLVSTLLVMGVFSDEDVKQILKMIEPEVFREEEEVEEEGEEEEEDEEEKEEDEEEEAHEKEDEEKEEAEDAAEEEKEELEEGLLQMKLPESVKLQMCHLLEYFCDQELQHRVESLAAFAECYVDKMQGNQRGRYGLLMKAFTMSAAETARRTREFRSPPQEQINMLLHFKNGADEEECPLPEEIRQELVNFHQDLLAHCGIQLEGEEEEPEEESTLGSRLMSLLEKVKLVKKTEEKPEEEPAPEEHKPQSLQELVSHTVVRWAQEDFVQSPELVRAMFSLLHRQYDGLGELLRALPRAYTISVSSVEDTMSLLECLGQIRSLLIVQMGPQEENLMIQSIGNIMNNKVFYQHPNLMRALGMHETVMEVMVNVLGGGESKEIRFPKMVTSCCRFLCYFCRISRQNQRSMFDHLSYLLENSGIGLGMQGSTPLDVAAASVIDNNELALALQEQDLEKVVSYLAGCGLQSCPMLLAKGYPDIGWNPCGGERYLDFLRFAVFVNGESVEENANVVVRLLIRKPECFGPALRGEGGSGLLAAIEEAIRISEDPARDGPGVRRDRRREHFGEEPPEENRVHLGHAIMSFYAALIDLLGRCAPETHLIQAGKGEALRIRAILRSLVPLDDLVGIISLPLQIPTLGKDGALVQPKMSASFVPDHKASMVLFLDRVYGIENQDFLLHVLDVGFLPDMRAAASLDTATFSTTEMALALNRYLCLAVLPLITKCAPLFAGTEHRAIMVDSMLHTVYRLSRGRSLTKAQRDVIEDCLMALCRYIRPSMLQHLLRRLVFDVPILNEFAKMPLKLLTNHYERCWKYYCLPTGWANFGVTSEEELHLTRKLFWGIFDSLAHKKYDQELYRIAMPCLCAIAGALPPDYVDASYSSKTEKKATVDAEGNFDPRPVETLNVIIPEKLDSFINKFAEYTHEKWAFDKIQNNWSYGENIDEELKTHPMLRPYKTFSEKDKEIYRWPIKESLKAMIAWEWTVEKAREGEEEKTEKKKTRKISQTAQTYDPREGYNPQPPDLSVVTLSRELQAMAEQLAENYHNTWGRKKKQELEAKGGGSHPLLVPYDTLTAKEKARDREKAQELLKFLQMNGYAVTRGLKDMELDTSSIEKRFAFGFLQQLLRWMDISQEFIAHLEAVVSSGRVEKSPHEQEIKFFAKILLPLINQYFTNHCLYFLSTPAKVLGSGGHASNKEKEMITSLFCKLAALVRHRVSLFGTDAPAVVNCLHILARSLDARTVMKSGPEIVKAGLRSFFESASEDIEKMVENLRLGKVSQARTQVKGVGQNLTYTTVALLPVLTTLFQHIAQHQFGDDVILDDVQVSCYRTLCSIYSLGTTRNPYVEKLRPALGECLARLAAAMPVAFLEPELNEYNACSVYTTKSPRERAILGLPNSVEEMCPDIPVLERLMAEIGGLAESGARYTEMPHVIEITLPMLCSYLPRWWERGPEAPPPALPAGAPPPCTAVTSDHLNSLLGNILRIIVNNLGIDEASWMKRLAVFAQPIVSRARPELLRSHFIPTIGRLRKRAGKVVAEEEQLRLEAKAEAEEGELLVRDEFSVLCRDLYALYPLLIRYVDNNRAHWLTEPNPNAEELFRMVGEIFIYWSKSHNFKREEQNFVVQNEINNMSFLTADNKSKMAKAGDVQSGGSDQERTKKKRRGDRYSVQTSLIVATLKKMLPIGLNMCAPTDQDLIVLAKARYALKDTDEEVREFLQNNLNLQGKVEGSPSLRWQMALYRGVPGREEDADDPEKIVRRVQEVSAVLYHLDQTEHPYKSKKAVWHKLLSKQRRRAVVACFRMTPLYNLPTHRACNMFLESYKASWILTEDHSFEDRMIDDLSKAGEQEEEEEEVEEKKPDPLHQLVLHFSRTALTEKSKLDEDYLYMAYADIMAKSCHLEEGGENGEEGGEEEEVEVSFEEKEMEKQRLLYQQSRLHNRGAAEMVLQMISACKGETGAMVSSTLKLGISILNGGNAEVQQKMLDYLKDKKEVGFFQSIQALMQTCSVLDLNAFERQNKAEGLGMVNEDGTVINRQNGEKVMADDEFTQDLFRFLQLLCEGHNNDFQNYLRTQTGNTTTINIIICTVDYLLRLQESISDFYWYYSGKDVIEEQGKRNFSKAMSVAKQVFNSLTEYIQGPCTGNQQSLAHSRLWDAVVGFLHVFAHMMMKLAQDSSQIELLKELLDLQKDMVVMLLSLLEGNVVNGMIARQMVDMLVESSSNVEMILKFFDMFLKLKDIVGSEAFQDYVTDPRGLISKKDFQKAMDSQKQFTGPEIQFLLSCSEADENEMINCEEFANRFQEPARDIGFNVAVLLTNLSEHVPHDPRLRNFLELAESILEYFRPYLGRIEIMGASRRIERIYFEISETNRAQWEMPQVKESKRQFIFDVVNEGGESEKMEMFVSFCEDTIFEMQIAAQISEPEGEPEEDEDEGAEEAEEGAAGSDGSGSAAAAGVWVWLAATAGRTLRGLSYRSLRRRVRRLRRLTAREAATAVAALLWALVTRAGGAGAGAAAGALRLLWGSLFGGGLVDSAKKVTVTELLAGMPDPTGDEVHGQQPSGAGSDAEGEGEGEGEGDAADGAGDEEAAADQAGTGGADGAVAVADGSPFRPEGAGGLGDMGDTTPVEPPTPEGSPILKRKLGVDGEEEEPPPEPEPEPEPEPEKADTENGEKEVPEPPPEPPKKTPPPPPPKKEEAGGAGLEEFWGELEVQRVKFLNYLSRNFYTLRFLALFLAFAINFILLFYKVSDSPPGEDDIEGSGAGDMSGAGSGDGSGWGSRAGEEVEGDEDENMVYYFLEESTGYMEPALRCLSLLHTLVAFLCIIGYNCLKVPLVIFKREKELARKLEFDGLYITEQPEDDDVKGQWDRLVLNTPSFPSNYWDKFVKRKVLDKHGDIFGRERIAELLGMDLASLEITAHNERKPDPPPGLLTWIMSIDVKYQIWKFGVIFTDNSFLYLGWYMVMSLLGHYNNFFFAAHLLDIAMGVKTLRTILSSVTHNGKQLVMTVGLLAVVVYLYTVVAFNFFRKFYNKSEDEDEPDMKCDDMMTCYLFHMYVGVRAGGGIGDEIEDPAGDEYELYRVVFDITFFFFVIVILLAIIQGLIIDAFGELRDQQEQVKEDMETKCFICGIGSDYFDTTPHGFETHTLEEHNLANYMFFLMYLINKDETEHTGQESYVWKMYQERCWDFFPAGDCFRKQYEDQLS
Protocol: (2) Preparation of Mammalian Crude Ryanodine Receptor Fraction was Performed as Follows.
Muscles of the hind legs of ICR mouse were finely cut, and 3.0 g thereof was homogenized at 0° C., 1,000 rpm for 3×30 sec using glass homogenizer in 15 ml of buffer B (20 mM Tris-HCl buffer (pH 8.0) containing 4 μg/ml aprotinin and 4 μg/ml leupeptin). The homogenate was transferred into the micro test tube, and the glass homogenizer was also washed with the 7.5 ml of buffer B, and the washed solution was also added to the micro test tube, which was stirred, then centrifuged by using ultracentrifuge cooled at 4° C., 25,000×g for 40 min. 2.4 ml of the buffer B was added to the obtained precipitate and suspended to obtain the crude ryanodine receptor fraction of mouse origin.
(4) Binding Activity of Crude Mammalian Ryanodine Receptor was Assayed aAs Follows.
70 μl of the buffer A, 10 μl of ethanol solution of 0.1 nM ryanodine and 10 μl of 20 nM [9,21-^3H] (N) ryanodine were added into the 96 well microplate (Corning Inc. the U.S.). 10 μl of crude ryanodine receptor fraction of mouse origin was added to initiate the reaction, and shaken at room temperature for 90 min. by using microplate mixer. […] Radioactivity was measured by measuring fluorescence intensity of the filter with using scintillation counter (Wallac Inc. the U.S., MicroBeta™ TriLux).
Data set [5] in a line: Solubility in solvent. The data set is classed as physicochemical.

Turning to `CCCCCC1OC(=O)C(C)N(C)C(=O)C(CCCCC)OC(=O)C(C)N(C)C(=O)C(CCCCC)OC(=O)C(C)N(C)C(=O)C(CCCCC)OC(=O)C(C)N(C)C1=O` (stereo not shown) [FKI-1033 substance], the “growth inhibition of the arthropods (Artemia salina)” value in data set [1] is “inhibited growth”. Moreover, the “growth inhibition of the nematodes (Caenorhabditis elegans)” value in data set [2] is “inhibited growth”. The “potency of ryanodine binding inhibition against the insect ryanodine receptor versus the mammalian ryanodine receptor” value in data set [3] (insect (Periplaneta americana) vs mammalian (mouse) receptor) is on record as “more than ten times potent”. The IC50 in data set [3] (read-out: ryanodine binding inhibition activity, IC50, crude ryanodine receptor fraction of Periplaneta americana, [9,21-3H](N) ryanodine, room temperature 90 min) turned out to be 4.2 µM; in data set [4], 53.9 µM. Also, the Solubility in solvent entry in data set [5] (methanol, ethanol, ethyl acetate and chloroform) is “Soluble”; in data set [5] (water and n-hexane) it was “Hardly soluble”.
